Tests used:
Experiment in all cases: Kinase profiling in a biochemical assay panel (mobility shift assays and ELISA), %-inhibition at 1 μM; selectivity entropy
[1] = molecular target: panel of more than 300 wild-type and mutant kinases (313 kinase panel) (Homo sapiens, UniProt P42685); settings: kinase FRK; compound at 1 μM
[2] = molecular target: panel of more than 300 wild-type and mutant kinases (313 kinase panel) (Homo sapiens, UniProt P08581); settings: kinase MET; compound at 1 μM
[3] = molecular target: T1, panel of more than 300 wild-type and mutant kinases (313 kinase panel) (Homo sapiens, UniProt Q9UQB9); settings: kinase AurC; 1 μM compound
T1 sequence (Q9UQB9 1-309): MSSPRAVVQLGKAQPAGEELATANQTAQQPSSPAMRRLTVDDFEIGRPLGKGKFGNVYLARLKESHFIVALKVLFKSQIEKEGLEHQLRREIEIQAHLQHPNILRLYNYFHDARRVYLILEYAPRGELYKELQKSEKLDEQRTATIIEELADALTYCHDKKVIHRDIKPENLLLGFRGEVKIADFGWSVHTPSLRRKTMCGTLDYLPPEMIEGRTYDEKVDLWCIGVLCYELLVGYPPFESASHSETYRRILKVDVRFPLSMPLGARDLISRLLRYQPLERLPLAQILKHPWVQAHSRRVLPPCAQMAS

[4] = molecular target: panel of more than 300 wild-type and mutant kinases (313 kinase panel) (Homo sapiens, UniProt P07947); settings: kinase YES; compound at 1 μM
[5] = molecular target: panel of more than 300 wild-type and mutant kinases (313 kinase panel) (Homo sapiens, UniProt O75582); settings: kinase MSK1; 1 μM
[6] = molecular target: panel of more than 300 wild-type and mutant kinases (313 kinase panel) (Homo sapiens, UniProt P49759); settings: kinase CLK1; 1 μM compound
[7] = molecular target: panel of more than 300 wild-type and mutant kinases (313 kinase panel) (Homo sapiens, UniProt P11309); settings: kinase PIM1; 1 μM
[8] = molecular target: panel of more than 300 wild-type and mutant kinases (313 kinase panel) (Homo sapiens, UniProt Q9HC98); settings: kinase NEK6; 1 μM
[9] = molecular target: panel of more than 300 wild-type and mutant kinases (313 kinase panel) (Homo sapiens, UniProt P49761); settings: kinase CLK3; compound at 1 μM
[10] = molecular target: panel of more than 300 wild-type and mutant kinases (313 kinase panel) (Homo sapiens, UniProt Q02763); settings: kinase TIE2; 1 μM
[11] = molecular target: panel of more than 300 wild-type and mutant kinases (313 kinase panel) (Homo sapiens, UniProt P22455, V550E); settings: kinase FGFR4(V550E); compound at 1 μM
[12] = molecular target: panel of more than 300 wild-type and mutant kinases (313 kinase panel) (Homo sapiens, UniProt P48729); settings: kinase CK1α; 1 μM compound
[13] = molecular target: panel of more than 300 wild-type and mutant kinases (313 kinase panel) (Homo sapiens, UniProt Q96RG2); settings: kinase PASK; 1 μM
[14] = molecular target: T2, panel of more than 300 wild-type and mutant kinases (313 kinase panel) (Homo sapiens, UniProt Q12866); settings: kinase MER; compound at 1 μM
T2 sequence (Q12866 21-999): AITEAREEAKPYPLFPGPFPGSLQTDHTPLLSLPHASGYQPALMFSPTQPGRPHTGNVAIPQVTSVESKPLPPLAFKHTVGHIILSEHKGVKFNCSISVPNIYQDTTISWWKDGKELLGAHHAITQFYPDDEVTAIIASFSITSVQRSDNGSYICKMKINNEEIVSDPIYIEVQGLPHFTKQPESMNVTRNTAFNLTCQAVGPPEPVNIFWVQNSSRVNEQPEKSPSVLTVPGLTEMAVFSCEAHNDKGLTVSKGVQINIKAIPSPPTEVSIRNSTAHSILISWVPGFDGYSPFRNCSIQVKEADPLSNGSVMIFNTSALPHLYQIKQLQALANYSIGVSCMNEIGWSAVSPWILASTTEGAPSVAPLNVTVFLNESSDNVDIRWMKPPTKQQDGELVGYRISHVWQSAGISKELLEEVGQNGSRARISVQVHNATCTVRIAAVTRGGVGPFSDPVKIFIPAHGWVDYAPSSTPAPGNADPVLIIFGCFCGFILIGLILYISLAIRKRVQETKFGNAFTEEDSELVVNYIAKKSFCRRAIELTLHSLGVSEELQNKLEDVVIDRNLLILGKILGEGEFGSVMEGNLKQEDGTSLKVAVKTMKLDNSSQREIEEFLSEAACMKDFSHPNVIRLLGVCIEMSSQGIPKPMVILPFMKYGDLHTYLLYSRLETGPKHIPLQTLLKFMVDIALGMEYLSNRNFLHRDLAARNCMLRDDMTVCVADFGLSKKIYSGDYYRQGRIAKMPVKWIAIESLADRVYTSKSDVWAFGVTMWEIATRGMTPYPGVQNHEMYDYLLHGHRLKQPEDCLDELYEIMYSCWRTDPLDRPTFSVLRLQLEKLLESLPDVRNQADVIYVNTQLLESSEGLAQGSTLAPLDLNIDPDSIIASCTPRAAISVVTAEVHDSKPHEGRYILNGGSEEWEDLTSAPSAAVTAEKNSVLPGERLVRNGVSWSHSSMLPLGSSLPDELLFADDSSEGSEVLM

Chain of panel of more than 300 wild-type and mutant kinases (313 kinase panel) (Homo sapiens, UniProt Q02763) (Q02763 23-1124, stated change not applied): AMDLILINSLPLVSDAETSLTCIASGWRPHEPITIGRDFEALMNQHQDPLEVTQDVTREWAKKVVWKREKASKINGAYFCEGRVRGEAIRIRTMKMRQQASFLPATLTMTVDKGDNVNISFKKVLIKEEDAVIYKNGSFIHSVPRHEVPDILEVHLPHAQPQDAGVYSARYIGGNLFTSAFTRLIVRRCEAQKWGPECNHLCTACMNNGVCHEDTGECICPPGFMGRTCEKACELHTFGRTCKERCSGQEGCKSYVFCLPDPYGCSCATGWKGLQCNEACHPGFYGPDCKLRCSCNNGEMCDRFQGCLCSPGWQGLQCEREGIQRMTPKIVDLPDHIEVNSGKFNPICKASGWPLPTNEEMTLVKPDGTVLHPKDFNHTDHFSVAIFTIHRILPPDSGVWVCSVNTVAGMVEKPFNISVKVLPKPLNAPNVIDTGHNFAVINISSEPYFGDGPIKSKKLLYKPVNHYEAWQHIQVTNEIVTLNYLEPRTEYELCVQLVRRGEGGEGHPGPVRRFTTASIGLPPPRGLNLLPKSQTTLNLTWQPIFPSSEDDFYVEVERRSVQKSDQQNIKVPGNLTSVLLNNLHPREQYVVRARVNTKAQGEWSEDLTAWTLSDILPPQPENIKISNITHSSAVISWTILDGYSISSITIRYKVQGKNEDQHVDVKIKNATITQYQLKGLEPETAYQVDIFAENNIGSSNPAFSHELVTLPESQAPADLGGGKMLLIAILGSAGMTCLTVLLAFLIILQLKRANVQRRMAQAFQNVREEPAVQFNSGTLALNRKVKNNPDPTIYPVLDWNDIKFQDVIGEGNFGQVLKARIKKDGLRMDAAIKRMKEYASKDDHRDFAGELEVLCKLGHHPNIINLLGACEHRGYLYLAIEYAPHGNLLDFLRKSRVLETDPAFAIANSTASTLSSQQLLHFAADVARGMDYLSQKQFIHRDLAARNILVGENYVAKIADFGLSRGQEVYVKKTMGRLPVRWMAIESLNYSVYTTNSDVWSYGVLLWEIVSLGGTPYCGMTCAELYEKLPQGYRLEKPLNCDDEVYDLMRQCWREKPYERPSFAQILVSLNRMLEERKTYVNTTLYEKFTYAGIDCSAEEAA
Chain of panel of more than 300 wild-type and mutant kinases (313 kinase panel) (Homo sapiens, UniProt P22455, V550E) (P22455 22-802 V550E): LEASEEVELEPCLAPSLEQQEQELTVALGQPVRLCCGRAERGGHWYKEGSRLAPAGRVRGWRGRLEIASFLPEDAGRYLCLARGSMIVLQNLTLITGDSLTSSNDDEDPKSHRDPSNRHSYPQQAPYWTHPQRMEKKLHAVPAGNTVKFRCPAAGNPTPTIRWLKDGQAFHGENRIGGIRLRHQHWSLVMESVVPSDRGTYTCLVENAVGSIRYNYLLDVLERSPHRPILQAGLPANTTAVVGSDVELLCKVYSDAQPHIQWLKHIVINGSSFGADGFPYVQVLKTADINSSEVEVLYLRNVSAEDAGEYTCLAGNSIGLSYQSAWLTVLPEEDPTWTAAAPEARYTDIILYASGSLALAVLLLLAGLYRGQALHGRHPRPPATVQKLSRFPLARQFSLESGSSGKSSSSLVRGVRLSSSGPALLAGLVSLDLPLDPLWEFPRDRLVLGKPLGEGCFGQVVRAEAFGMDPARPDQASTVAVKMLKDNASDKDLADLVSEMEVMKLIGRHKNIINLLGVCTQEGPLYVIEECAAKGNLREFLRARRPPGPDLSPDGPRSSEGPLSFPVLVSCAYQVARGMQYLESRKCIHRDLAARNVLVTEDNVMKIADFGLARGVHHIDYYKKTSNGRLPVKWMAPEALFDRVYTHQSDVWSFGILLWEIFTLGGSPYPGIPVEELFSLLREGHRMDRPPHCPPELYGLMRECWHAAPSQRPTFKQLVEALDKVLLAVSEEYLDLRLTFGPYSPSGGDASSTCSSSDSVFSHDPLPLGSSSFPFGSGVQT
Chain of panel of more than 300 wild-type and mutant kinases (313 kinase panel) (Homo sapiens, UniProt P42685) (P42685 whole entry, change not shown): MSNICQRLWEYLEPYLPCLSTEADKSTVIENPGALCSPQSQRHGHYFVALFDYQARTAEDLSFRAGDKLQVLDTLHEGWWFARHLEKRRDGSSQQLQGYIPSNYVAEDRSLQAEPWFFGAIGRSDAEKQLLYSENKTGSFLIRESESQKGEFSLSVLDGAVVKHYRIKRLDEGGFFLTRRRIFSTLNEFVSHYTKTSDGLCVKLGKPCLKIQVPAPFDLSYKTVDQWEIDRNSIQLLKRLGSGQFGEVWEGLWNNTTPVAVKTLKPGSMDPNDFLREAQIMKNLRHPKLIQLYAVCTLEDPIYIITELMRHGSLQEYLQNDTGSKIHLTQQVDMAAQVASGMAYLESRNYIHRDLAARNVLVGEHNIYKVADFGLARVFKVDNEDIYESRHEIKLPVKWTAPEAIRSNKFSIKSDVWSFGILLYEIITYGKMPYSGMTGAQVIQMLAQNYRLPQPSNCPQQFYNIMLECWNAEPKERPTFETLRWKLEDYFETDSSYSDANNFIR
Chain of panel of more than 300 wild-type and mutant kinases (313 kinase panel) (Homo sapiens, UniProt P07947) (P07947 whole entry, change not shown): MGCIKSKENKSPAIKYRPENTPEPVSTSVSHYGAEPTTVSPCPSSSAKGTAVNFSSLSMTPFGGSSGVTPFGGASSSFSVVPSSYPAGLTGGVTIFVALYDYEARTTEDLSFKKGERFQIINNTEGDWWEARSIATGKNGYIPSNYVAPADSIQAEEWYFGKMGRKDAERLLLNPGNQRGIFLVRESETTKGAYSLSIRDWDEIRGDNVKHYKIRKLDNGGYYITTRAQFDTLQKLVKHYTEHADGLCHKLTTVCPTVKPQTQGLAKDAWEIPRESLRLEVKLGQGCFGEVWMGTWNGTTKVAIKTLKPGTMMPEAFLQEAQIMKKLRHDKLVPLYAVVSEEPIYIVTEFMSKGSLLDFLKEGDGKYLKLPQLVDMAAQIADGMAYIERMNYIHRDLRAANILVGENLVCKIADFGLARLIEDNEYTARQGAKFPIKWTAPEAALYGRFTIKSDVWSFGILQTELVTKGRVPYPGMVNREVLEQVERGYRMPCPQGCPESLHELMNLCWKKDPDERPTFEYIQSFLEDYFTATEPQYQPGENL
Chain of panel of more than 300 wild-type and mutant kinases (313 kinase panel) (Homo sapiens, UniProt Q96RG2) (Q96RG2 whole entry, change not shown): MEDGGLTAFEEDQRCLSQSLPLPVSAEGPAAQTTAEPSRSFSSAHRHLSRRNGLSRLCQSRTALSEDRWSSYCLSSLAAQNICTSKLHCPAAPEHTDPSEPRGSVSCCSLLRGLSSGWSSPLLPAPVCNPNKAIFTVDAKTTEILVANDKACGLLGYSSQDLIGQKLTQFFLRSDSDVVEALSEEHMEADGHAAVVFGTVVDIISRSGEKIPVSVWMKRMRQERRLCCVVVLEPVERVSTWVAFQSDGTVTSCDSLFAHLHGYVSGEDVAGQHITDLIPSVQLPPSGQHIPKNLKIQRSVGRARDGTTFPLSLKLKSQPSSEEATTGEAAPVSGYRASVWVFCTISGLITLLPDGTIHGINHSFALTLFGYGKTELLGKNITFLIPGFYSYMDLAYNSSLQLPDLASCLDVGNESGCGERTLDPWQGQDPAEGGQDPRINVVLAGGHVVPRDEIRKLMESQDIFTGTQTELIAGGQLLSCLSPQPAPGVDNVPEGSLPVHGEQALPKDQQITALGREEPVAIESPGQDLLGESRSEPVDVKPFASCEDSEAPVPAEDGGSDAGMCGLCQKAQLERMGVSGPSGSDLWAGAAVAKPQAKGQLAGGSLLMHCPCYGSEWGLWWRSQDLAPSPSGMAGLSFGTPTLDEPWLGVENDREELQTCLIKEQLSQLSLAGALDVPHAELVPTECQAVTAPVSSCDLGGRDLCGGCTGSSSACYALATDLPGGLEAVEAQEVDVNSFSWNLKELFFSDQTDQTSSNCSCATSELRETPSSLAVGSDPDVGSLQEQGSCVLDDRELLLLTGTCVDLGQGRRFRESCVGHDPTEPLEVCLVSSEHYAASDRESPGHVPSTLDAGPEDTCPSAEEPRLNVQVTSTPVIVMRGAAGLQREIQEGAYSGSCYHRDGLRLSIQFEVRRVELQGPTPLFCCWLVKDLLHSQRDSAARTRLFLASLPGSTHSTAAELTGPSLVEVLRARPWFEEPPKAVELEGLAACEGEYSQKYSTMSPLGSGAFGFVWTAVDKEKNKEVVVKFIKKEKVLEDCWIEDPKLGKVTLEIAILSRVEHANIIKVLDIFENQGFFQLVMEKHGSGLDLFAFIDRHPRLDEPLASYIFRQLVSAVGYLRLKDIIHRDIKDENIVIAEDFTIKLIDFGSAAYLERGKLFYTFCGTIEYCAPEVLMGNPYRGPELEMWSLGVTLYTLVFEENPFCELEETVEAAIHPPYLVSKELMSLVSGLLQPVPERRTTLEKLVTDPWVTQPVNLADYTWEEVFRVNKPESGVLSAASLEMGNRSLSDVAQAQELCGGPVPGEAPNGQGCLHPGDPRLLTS
Chain of panel of more than 300 wild-type and mutant kinases (313 kinase panel) (Homo sapiens, UniProt P49761) (P49761 whole entry, change not shown): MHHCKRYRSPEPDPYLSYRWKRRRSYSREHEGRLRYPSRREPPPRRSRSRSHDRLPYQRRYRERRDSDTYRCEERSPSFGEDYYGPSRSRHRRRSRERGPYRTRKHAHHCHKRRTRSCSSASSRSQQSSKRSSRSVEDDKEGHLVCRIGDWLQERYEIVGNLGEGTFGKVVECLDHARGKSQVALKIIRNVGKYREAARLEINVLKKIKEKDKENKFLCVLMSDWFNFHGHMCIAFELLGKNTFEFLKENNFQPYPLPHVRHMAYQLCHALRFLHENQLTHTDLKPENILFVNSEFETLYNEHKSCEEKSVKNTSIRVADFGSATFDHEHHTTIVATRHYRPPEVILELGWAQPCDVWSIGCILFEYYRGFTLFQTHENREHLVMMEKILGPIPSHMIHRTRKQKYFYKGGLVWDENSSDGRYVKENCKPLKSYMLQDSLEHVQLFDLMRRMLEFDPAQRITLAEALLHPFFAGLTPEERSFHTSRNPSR

CCCS(=O)(=O)Nc1ccc(F)c(C(=O)c2c[nH]c3ncc(-c4ccc(Cl)cc4)cc23)c1F [vemurafenib]
%-inhibition of FRK [1]: 62%
%-inhibition of MET [2]: 3.67%
%-inhibition, AurC [3]: 13%
%-inhibition of YES [4]: 74%
%-inhibition of MSK1 [5]: 0.256%
%-inhibition, CLK1 [6]: 5%
%-inhibition of PIM1 [7]: -3.41%
%-inhibition of NEK6 [8]: -1.43%
%-inhibition of CLK3 [9]: -14%
%-inhibition of TIE2 [10]: -2.42%
%-inhibition of FGFR4(V550E) [11]: 1.79%
%-inhibition, CK1α [12]: -4.34%
%-inhibition of PASK [13]: 2.35%
%-inhibition of MER [14]: 6%
